Measured values from patent US20230062119A1, “USE OF BIOMARKERS IN IDENTIFYING PATIENTS THAT WILL BE RESPONSIVE TO TREATMENT WITH A PRMT5 INHIBITOR” (Merck Sharp & Dohme LLC, priority 2019, published 2023).

Assays:
[1] = target: T1, Full-length (FL)-PRMT5-MEP50 enzyme complex (Homo sapiens, UniProt O14744); test: PRMT5-MEP50 Enzyme Methylation Assay; type: biochemical; conditions: one EC50: 4 parameters single site sigmoidal model; EC50 1: first value of 7 parameters biphasic model; 1.0 nM PRMT5-MEP50, 75 nM biotinylated peptide, 15 μM SAM; read-out: Enzyme Methylation Assay (EC50 or EC50 1)
T1 construct: Full-length (FL)-PRMT5-MEP50 enzyme complex (recombinant proteins from baculovirus-transfected Sf21 cells: FL-PRMT5; MW=73837 kDa and FL-MEP50; MW=38614); made in house; host or cells: baculovirus-transfected Sf21 insect cells
T1 sequence (O14744 whole entry): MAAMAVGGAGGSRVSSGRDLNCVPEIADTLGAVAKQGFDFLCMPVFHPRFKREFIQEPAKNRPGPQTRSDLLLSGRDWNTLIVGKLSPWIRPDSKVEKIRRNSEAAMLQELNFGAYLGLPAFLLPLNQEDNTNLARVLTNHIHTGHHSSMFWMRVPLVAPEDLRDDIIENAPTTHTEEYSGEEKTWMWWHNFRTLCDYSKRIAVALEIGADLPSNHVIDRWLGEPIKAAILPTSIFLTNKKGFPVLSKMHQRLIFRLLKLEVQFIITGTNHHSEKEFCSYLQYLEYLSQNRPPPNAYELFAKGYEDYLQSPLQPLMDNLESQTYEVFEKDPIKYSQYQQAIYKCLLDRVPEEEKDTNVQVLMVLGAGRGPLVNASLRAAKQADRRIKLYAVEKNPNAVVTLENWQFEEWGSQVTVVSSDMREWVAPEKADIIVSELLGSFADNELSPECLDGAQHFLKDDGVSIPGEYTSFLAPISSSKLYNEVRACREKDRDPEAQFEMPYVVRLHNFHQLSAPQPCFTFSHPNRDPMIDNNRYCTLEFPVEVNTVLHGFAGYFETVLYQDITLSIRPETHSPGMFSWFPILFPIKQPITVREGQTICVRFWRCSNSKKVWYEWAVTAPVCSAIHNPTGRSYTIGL
T1 sequence (Q9BQA1 whole entry partner): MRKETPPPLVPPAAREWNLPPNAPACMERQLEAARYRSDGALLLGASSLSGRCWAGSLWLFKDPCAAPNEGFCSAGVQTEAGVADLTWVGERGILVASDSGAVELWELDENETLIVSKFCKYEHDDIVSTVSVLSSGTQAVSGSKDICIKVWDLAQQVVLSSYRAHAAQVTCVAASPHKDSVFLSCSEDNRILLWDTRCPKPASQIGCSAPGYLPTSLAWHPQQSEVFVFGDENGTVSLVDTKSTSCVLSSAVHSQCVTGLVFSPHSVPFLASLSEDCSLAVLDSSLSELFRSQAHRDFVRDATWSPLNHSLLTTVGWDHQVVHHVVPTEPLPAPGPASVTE
How it was run: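 Compound was pre-incubated 60 min at 37°C with 1.0 nM enzyme and 15 μM SAM (final) in 50 mM Bicine pH 8.0, then 75 nM biotinylated H4R3(Me1) peptide was added and reacted 150 min; twenty-point 1:2 titration from 100000 nM, 1% DMSO. Formic acid quench; SAMDI mass spectrometry measured Me1-to-Me2 conversion, EC50 by 4- or 7-parameter regression.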

[2] = tested on: symmetric dimethylation of arginine (SDMA) of PRMT5 substrates in MCF-7 cells; test: PRMT5 Cell Target Engagement (TE) Assay; type: cell-based; conditions: Homo sapiens, MCF7, 72 h, treated for 3 days, nuclear SDMA by high content imaging, top concentration 10000 nM
Excerpt: The PRMT5 TE assay is a biomarker assay for identifying compounds that inhibit symmetric dimethylation of arginine (SDMA) of PRMT5 substrates. The following substrates have been reported for PRMT5: Histone H2A and H4 R3, Histone H3 R2, Histone H3 R8, spliceosome Sm proteins, ribosomal protein RPS10, p53, FEN1, nucleoplasmin, nucleolin, EGFR and EBNA. The assay will focus on detecting symmetrically dimethylated nuclear proteins using high content imaging technology. Detection of the expression of symmetrically dimethylated nuclear proteins is through a mixture of primary rabbit monoclonal antibodies to SDMA (CST 13222), which in turn recognized by an Alexafluor 488 dye-conjugated anti-rabbit IgG secondary antibody. The IN Cell Analyzer 2200 or Opera-Phenix measures nuclear Alexafluor 488 fluorescent dye intensity that is directly related to the level of expression of symmetrically dimethylated nuclear proteins at the single cell level. Nuclear AF488 dye intensities are compared to the mean value for DMSO treated cells (MIN) to report percent of inhibition for each compound-treated well.
In this assay, the cell potency (EC50) of each compound was determined from a ten point (1:3 serial dilution; top compound concentration of 10000 nM) titration curve using the following outlined procedure. Each well of a BD falcon collagen coated black/clear bottom 384-well plate was seeded with 4000 MCF-7 cells in 30 μl media and allowed to attach for 5 hours. Media is ATCC-formulated Eagle's Minimum Essential Medium, Catalog No. 30-2003. The following components were added to the base medium: 0.01 mg/mL human recombinant insulin; fetal bovine serum to a final concentration of 10%. Additional 30 µl of media containing 2× compounds were added to each well. Cells were treated for 3 days in 37° C. CO2 incubator. On day 3, cells were fixed with Cytofix, permeabilized with 0.4% Triton-X-100/Cytofix, and washed with D-PBS without Ca/Mg. Cells were blocked with Licor Odessey blocking reagent for 1 hour at room temperature, followed by incubation with anti-SDMA (1:1000) antibody at 4° C. overnight. 1° antibody was removed, followed by three washings with DPBS without Ca/Mg and 0.05% Tween20. Hoechst (5 μg/mL), Cell Mask deep stain (1:2000) and Alexa488-conjugated goat anti-rabbit IgG (2 μg/mL) was added for 1 hour at room temperature. A final washing step (three washes) was performed before sealing plate for imaging on In Cell Analyzer 2200 or Opera-Phenix. Images from analyzer were uploaded to Columbus for image analysis. IC50 values were determined by 4 parameters robust fit of percent fluorescence units vs. (Log 10) compound concentrations.

Compound | EC50 [1] | EC50 [2]
Cc1cn([C@@H]2O[C@@H]3[C@@H](Oc4ccc5cc(Cl)c(N)nc5c4)CC[C@]3(O)[C@H]2O)c2ncnc(N)c12 [Example 64, (2R,3R,3aS,6S,6aR)-6-((2-amino-3-chloroquinolin-7-yl)oxy)-2-(4-amino-5-methyl-7H-pyrrolo[2,3-d]pyrimidin-7-yl)hexahydro-3aH-cyclopenta[b]furan-3,3a-diol 2,2,2-trifluoroacetate] | 0.3 nM | 16.2 nM
Nc1nc2cc(C[C@@H]3CC[C@@]4(O)[C@@H]3O[C@@H](n3cc(C5CC5)c5c(N)ncnc53)[C@@H]4O)ccc2cc1F [Example 50, (2R,3R,3aS,6S,6aR)-2-(4-amino-5-cyclopropyl-7H-pyrrolo[2,3-d]pyrimidin-7-yl)-6-[(2-amino-3-fluoroquinolin-7-yl)methyl]hexahydro-3aH-cyclopenta[b]furan-3,3a-diol] | 0.3 nM | 0.7 nM
